Tests used:
[1] = test system: PAF-Induced Platelet Count Decrease; assay: PAF Induced Platelet Count Decrease; type: in vivo, guinea pig; details: Cavia porcellus, Platelet; 3 mg/Kg (route not given); read-out: Percent Inhib. of PAF-Induced Platelet Count Decrease, 3 mg/Kg
Experimental: PAF Induced Platelet Count Decrease
Male Hartley guinea pigs weighing between 500 and 900 grams were fed standard guinea pig chow and tap water ad libitum. PAF was solubilized in ethanol and stored as a 2 mM stock solution at -70° C. The stock solutuion of PAF was diluted to 1 pM in Tris buffer pH 7.4 and 0.1% BSA for all experiments.
(a) Intravenous Procedure
Guinea pigs were anesthetized with urethane (1.6 g/kg, i.p.). A catheter (PE50) was introduced into the right carotid artery for withdrawing blood. A second catheter PE10) was introduced into the jugular vein for injecting drugs and for administering the PAF challenge (75 ng/kg, i.v.). A control blood sample was obtained and platelets were counted in a whole blood platelet analyzer. PAF was then given and blood samples were taken 15, 30, and 60 seconds after the challenge for platelet counts. Fifteen minutes later, selected concentrations of the test compound were solubilized in DMSO and injected intravenously into a group of 4-6 animals. Only one concentration of antagonist was used in each animal group. Fifteen minutes after drug injection, blood smaples were taken before and 15, 30, and 60 sec after the PAF challenge, and analyzed for platelet number.
Animals were anesthetized with sodium pentobarbital (35 mg/kg. i.p.) and the caritoid artery and jugular vein were cannulated as described above. The cannulae were exteriorized at the base of the neck and the animals were allowed to recover. At least 18 hours after surgery, conscious unrestrained guinea pigs were used in the experiment. The animals were challenged two time with PAF (120 ng/kg. i.v.); the first to establish a consistent response to PAF and the second to serve as a control for the PAF challenge. Blood samples were taken before and 15, 30, and 45 seconds after PAF challenge and platelets were counted. Thirty minutes after the control PAF challenge, the animal were orally dosed with either gum acacia or the test compound. Animals were then challenged with PAF at 1, 3, 5, and 24 hours after the administration of the drug.
Data Analysis and Statistics
The % change, i.e., the difference in platelet number before and after PAF challenge was calculated by: [formula]
Statistical significance (p<0.05) of the difference between the mean PAF control and mean drug treated activity was determined with paried Students's t-test.

[2] = molecular target: T1, PAF Binding, dog platelets (Canis lupus familiaris, UniProt A0A8I3NSH0); assay: PAF Binding Assay (inhibition of 3H-PAF binding to washed dog platelets); details: dog platelets, 3H-PAF, 10 minutes at room temperature; read-out: Inhib of PAF Binding IC50
T1 construct: Washed platelets were prepared by resuspending the platelet pellet once with PBS containing 1 mM EDTA; from tissue; host or cells: washed platelets from dog blood
T1 sequence (A0A8I3NSH0 1-343): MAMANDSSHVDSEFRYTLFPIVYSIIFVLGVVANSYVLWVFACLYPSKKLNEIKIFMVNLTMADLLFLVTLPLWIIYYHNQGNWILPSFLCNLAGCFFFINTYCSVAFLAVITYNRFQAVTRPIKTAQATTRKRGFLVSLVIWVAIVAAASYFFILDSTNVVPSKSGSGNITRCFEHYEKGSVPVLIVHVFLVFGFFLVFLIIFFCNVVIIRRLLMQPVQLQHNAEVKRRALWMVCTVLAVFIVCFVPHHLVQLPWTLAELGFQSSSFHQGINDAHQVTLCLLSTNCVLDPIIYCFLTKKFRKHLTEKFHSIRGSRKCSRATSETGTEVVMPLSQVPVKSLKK
Outline: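 Washed dog platelets (2×10^7 per tube, in 0.1% BSA-PBS) incubated 10 min at room temperature with 3H-PAF and test analogs. Bound ligand separated by 1 min centrifugation through silicone oil; platelet pellet radioactivity counted by liquid scintillation.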

[3] = test system: PAF-Induced Bronchoconstriction; assay: PAF Induced Bronchoconstriction Assay; type: in vivo, guinea pig
Outline: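 Male Hartley guinea pigs, urethane-anesthetized (2 g/kg i.p.), ventilated, with succinylcholine 1.2 mg/kg i.v. and propranolol 0.1 mg/kg i.v. pretreatment. Compound given i.v. 1 min or by oral gavage 2 h before i.v. PAF challenge at 1.0 μg/kg. Peak tracheal pressure rise over baseline compared with control mean gives % inhibition.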

IC50 [2]: 60 nM
Structure (SMILES): O=C(/C=C/C=C(c1ccc(Cl)cc1)c1ccc(Cl)cc1)NCCCCc1cccnc1 [(E)-5,5-bis(4-chlorophenyl)-N-[4-(3-pyridinyl)butyl]-2,4-pentadienamide]
inhibition in vivo at 3 mg/kg [1]: 0%
inhibition in vivo at 50 mg/kg ([3]; Cavia porcellus, po, 50 mg/Kg p.o., 2-hour pretreatment, read-out: Percent Inhib. of PAF-Induced Bronchoconstriction, 50 mg/Kg p.o.): 63 ± 10%
Percent Inhib. of PAF-Induced Bronchoconstriction, mg/Kg i.v. ([3]; i.v. (dose not given), 1 minute pretreatment, PAF 1.0 μg/kg i.v.): 95 ± 2%

Reference: patent US4788206A, “Pentadieneamides” (Hoffmann-La Roche Inc., priority 1987, dated 1988)
